Experimental data: PMC6131351, “Pharmacological difference between degrader and inhibitor against oncogenic BCR-ABL kinase” (Scientific Reports, 2018)

How the values were obtained:
[1] = test system: KU812 cells; assay: WST cell growth inhibition, KU812; type: cell-based; conditions: Homo sapiens, 48 h, WST assay, means ± SD (n = 3)
Description: Human CML (K562 and KU812 cells), acute T-lymphoblast leukemia (MOLT-4 cell), and T cell leukemia (Jurkat cell) were cultured in Roswell Park Memorial Institute-1640 medium (Sigma-Aldrich, St. Louis, MO, USA) containing 10% fetal bovine serum (Thermo Fisher Scientific, Waltham, MA, USA) and 50 μg/ml kanamycin (Sigma-Aldrich). KU812 cells were obtained from Japanese Collection of Research Bioresources (JCRB, Osaka, Japan) Cell Bank (JCRB0104)[58].
Cell viability was determined using water-soluble tetrazolium WST-8 (4-[3-(2-methoxy-4-nitrophenyl)-2-(4-nitrophenyl)-2H-5-tetrazolio]-1,3-benzene disulfonate) for the spectrophotometric assay and conducted according to the manufacturer’s instructions (Dojindo, Tokyo, Japan). Cells were seeded at a concentration of 5 × 10^3 cells per well in a 96-well culture plate, and treated with the indicated compounds for 48 h. The WST-8 reagent was added, and the cells were incubated for 0.5 h at 37 °C in a humidified atmosphere of 5% CO2. The absorbance at 450 nm of the medium was measured using the EnVision Multilabel Plate Reader.

[2] = test system: phosphorylation of BCR-ABL, STAT5 and CrkL; assay: Downstream kinase signaling (phosphorylation) by western blot in K562 cells; type: cell-based, Human
Description: Cells were collected and lysed in a lysis buffer (0.5% Triton X-100, 0.01 M Tris-HCl (pH 7.5), 0.15 M NaCl, Complete Mini protease inhibitor cocktail (Roche Applied Science, Indianapolis, IL, USA) and PhosStop phosphatase inhibitor cocktail (Roche Applied Science)). Protein concentrations were measured by the BCA method (Thermo Fisher Scientific) and an equal amount of protein lysate was separated by SDS-PAGE, transferred to polyvinylidene difluoride membranes (Merck Millipore) and analyzed by western blot using an appropriate antibody. The immunoreactive proteins were visualized using Clarity Western ECL substrate (Bio-Rad, Hercules, CA, USA) and their light emission was quantified with a LAS-3000 lumino-image analyzer (Fuji, Tokyo, Japan). The following antibodies were used: anti-cAbl rabbit polyclonal antibody (pAb) (#2862), anti-XIAP rabbit pAb (#2042), anti-phospho-cAbl rabbit pAb (#3009), anti-STAT5 rabbit pAb (#9363), anti-phospho-STAT5 rabbit pAb (#9359), anti-CrkL mouse monoclonal antibody (mAb) (#3182) and anti-phospho-CrkL rabbit pAb (#3181), anti-PARP rabbit pAb (#9532), and anti-cleaved Caspase 3 rabbit pAb (#9664) (Cell Signaling Technology, Danvers, MA, USA); anti-β-tubulin (ab6046) rabbit pAb (Abcam, Cambridge, UK) and anti-GAPDH rabbit pAb (sc-25778 HRP) (Santa Cruz, Dallas, TX, USA); anti-cIAP1 goat pAb (AF8181) (R&D systems).
(§1) Cells were seeded at a concentration of 2 × 10^6 cells per 10-cm tissue culture dish and treated with the indicated compounds for the indicated times. Then, the cells were washed three times to remove the compounds, and incubated in drug-free medium for the indicated times.

[3] = target: T1, BCR-ABL protein (Homo sapiens, UniProt P00519+P11274); assay: Washout experiment, BCR-ABL protein level by western blot in K562 cells; type: cell-based; conditions: K562, 50 times IC50 for 12 h, BCR-ABL/β-tubulin
T1 construct: examined for their activity to degrade BCR-ABL in K562 cells for 6 h; BCR (fusion partner, P11274, N-terminal part); endogenous in cells; host or cells: K562
T1 sequence (P11274+P00519 fused): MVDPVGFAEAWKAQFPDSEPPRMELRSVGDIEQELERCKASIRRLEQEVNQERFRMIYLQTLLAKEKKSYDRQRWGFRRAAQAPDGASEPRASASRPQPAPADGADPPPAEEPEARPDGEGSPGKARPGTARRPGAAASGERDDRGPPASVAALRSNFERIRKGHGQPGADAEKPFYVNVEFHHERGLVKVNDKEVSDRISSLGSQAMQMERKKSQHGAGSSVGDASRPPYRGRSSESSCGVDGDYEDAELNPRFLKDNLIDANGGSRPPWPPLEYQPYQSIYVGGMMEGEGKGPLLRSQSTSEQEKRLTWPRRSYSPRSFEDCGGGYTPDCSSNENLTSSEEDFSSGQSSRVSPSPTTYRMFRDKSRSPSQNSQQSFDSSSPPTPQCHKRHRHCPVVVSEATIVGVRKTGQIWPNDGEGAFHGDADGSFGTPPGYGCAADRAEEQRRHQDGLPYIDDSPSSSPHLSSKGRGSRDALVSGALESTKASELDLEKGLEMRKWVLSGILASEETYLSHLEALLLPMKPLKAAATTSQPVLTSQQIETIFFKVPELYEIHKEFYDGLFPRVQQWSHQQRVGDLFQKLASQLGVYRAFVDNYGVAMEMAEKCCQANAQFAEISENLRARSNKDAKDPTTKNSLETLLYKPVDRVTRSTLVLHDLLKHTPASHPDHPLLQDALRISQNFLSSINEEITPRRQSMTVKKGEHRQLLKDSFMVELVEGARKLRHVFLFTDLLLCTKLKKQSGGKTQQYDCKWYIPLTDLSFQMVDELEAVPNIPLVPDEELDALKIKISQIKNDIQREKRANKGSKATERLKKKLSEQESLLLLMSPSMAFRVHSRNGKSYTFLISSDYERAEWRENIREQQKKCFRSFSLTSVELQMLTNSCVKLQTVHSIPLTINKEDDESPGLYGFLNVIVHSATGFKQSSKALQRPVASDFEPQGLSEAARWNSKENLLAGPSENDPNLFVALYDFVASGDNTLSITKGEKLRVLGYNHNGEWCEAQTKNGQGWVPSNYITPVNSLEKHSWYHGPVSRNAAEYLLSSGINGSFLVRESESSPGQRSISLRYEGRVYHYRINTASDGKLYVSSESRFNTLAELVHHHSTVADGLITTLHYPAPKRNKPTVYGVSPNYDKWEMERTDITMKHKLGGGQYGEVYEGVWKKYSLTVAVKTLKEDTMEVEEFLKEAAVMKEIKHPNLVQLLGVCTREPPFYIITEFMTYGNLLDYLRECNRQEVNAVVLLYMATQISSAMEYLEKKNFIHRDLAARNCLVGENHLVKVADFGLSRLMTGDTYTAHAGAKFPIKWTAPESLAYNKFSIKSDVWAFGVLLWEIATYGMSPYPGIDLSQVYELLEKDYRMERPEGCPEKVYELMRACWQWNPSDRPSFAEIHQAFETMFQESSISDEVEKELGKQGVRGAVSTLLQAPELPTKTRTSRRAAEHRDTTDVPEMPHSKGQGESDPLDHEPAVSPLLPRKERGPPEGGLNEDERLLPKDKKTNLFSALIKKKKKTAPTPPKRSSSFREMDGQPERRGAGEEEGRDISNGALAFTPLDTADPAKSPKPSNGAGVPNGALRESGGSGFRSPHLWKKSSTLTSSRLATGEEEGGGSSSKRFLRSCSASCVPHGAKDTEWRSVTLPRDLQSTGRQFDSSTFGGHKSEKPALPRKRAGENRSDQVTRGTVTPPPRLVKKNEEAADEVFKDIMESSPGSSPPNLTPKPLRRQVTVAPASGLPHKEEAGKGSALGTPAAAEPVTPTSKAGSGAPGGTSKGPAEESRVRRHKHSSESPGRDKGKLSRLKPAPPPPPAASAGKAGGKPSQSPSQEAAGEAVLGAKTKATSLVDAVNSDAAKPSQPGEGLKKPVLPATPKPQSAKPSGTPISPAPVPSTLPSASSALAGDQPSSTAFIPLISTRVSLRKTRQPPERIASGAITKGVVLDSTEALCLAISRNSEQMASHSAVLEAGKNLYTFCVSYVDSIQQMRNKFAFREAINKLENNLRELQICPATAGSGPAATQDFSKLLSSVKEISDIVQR
Description: Cells were collected and lysed in a lysis buffer (0.5% Triton X-100, 0.01 M Tris-HCl (pH 7.5), 0.15 M NaCl, Complete Mini protease inhibitor cocktail (Roche Applied Science, Indianapolis, IL, USA) and PhosStop phosphatase inhibitor cocktail (Roche Applied Science)). Protein concentrations were measured by the BCA method (Thermo Fisher Scientific) and an equal amount of protein lysate was separated by SDS-PAGE, transferred to polyvinylidene difluoride membranes (Merck Millipore) and analyzed by western blot using an appropriate antibody. The immunoreactive proteins were visualized using Clarity Western ECL substrate (Bio-Rad, Hercules, CA, USA) and their light emission was quantified with a LAS-3000 lumino-image analyzer (Fuji, Tokyo, Japan).
as §1

[4] = target: T2, ABL1 (Homo sapiens, UniProt P00519); assay: TR-FRET binding assay, ABL1 (BODIPY-dasatinib probe); conditions: concentration required to inhibit the probe binding to ABL by 50%, read-out: Binding affinity IC50 ABL
T2 construct: the His-tagged ABL1 protein (full length, P3049) were from Life Technologies; purchased Life Technologies P3049
T2 sequence (P00519 whole entry): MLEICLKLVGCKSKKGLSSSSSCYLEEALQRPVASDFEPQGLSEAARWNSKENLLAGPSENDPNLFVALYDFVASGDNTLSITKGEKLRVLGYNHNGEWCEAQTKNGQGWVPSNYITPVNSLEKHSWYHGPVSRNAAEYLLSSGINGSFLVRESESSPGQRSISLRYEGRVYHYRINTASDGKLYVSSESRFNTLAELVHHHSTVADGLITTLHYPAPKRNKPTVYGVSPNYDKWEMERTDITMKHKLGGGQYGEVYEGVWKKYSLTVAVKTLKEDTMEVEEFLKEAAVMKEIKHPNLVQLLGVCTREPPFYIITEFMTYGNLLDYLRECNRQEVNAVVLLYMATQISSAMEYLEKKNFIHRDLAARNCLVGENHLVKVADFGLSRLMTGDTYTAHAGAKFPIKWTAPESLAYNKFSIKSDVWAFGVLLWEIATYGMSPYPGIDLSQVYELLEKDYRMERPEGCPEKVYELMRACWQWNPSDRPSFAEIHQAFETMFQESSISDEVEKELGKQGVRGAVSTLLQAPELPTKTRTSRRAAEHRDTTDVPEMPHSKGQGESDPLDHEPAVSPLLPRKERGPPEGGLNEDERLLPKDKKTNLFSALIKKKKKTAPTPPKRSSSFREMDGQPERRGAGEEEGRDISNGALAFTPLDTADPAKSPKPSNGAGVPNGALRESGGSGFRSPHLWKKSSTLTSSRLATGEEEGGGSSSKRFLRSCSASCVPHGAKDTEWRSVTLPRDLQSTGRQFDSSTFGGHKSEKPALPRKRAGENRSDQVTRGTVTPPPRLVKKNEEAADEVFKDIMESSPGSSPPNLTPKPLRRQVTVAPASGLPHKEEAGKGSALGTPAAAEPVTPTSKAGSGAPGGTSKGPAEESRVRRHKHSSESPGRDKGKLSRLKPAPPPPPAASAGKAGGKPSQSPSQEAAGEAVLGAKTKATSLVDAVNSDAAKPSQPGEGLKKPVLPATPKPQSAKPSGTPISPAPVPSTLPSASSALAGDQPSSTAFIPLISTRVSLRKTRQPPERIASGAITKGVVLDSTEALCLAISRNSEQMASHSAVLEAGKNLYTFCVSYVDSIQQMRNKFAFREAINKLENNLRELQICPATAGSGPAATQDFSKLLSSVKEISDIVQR
Description: The TR-FRET assay was carried out using 384-well white flat-bottom plates (Greiner Bio-One) and the signal was measured using an EnVision Multilabel Plate Reader (PerkinElmer, Waltham, MA, USA).
The half maximal inhibitory concentration (IC50) of test compounds was calculated by fitting the data with the logistic equation using GraphPad Prism 5 (GraphPad Software, Inc., La Jolla, CA, USA) or XLfit (IDBS, Guildford, UK).
Before addition to the assay plate, 3-fold concentrations of the His-ABL1 protein, Tb-SA and the biotinylated anti-His antibody were mixed in the assay buffer and incubated for over 1 h at room temperature. Several concentrations of test inhibitors dissolved in the assay buffer were dispensed in the assay plate. […] The plate was incubated for 30 min at room temperature and the TR-FRET signal was measured using the EnVision Multilabel Plate Reader.

[5] = K562, 50 times IC50 for 12 h (time 0)

Structure (SMILES): CN[C@@H](C)C(=O)N[C@H](C(=O)N1CCC[C@H]1c1nc(C(=O)c2cccc(OCCOCCOCCOCC(=O)N3CCN(c4cc(Nc5ncc(C(=O)Nc6c(C)cccc6Cl)s5)nc(C)n4)CC3)c2)cs1)C1CCCCC1 [DAS-IAP]
- IC50 [1]: 8.97 ± 0.99 nM
- phosphorylation of BCR-ABL, STAT5 and CrkL [2, 5]: inhibited
- phosphorylated BCR-ABL, STAT5 and CrkL after drug removal ([2]; K562, 50 times IC50 for 12 h, 48 and 72 h after drug removal): remained significantly diminished
- phosphorylation of BCR-ABL, STAT5 and CrkL ([2]; K562 cells, 6 h): suppressed
- BCR-ABL % of control ([3]; time after washout 0 h): 32 % of control
- BCR-ABL % of control ([3]; time after washout 48 h): 2 % of control
- BCR-ABL % of control ([3]; time after washout 72 h): 2 % of control
- IC50 [4]: 0.54 nM

Structure (SMILES): CN[C@@H](C)C(=O)N(C)[C@H](C(=O)N1CCC[C@H]1c1nc(C(=O)c2cccc(OCCOCCOCCOCC(=O)N3CCN(c4cc(Nc5ncc(C(=O)Nc6c(C)cccc6Cl)s5)nc(C)n4)CC3)c2)cs1)C1CCCCC1 [DAS-meIAP]
- IC50 [1]: 3.57 ± 0.22 nM
- phosphorylation of BCR-ABL, STAT5 and CrkL [2, 5]: inhibited
- phosphorylation of BCR-ABL, STAT5 and CrkL ([2]; K562 cells, 6 h): suppressed
- BCR-ABL % of control ([3]; time after washout 0 h): 84 % of control
- BCR-ABL % of control ([3]; time after washout 48 h): 80 % of control
- BCR-ABL % of control ([3]; time after washout 72 h): 73 % of control
- IC50 [4]: < 0.24 nM
